Data reported in PMC10137255, “Disturbing the Redox Balance Using Buthionine Sulfoximine Radiosensitized Somatostatin Receptor-2 Expressing Pre-Clinical Models to Peptide Receptor Radionuclide Therapy with ^177Lu-DOTATATE” (Cancers, 2023).
Values joined by “and” are separate entries in the source; they are usually repeats but may differ in a detail not shown here. Equal values may be shown once. Each block holds one molecule with its values, some of them ahead of it.

Experiments:
liver = test: H&E staining of liver; settings: mouse, in vivo
Procedure: (§1) Liver and kidneys were harvested, fixed in PAXgene Tissue FIX (Qiagen, Hilden, Germany) for 1 day at room temperature and kept at 4 °C in PAXgene Tissue STABILIZER (Qiagen) until they were embedded in paraffin for histological studies. Staining was carried out on 4 μm paraffin-embedded tissue sections subsequently deparaffinized in xylene and rehydrated in decreasing alcohol concentrations. Slides were incubated in Mayer’s hematoxylin for 6 min and subsequently in eosin for 3 min. Slides were mounted using Tissue-Tek Prisma (Sakura, Alphen aan den Rijn, The Netherlands). Digital scans of slides were acquired with Nanozoomer NDP (Hamamatsu Photonics, Shizuoka, Japan) and analysed by an experienced clinical pathologist.

[1] = tested on: total glutathione in MM162 cells; test: Total glutathione quantification, MM162; assay type: cell-based, human; settings: 10^−7 M BSO for 18 h, vs non-treated, mean ± SEM, n = 6 from 2 independent experiments
Procedure: (§2) Total glutathione was assessed in cell lines and mice tissues using the Quantification kit for oxidized and reduced glutathione (Sigma), according to the manufacturer’s instructions. Cells in culture were harvested, washed and then lysed with freeze-thaw cycles and subsequently mixed with 5% 5-sulfosalicylic acid. After centrifugation at 8000× g for 10 min, the supernatant was collected, and the 5-sulfosalicylic acid concentration was reduced to 0.5% with water for glutathione quantification. Tumour, liver and kidneys were harvested, snap-frozen in liquid nitrogen and stored at −70 °C until assayed for glutathione. Tissues were homogenized in 5% 5-sulfosalicylic acid in lysing matrix D tubes (MP Biomedicals) containing ceramic beads using a FastPrep-24 homogenizer (MP Biomedicals, Irvine, CA, USA) and centrifuged at 8000× g for 10 min. The supernatant was collected, and the 5-sulfosalicylic acid concentration was reduced to 0.5% with water for glutathione quantification. The buffer solution was added to samples (either from cell lines or tissues) (in triplicates) in a 96-well plate. […] Absorbance was read at 405 nm using a microplate reader (Thermo Labsystems Multiskan EX, ThermoFisher, Waltham, MA, USA). Total glutathione concentration was determined using a calibration curve.

[2] = tested on: HT-29 colon adenocarcinoma cell line; settings: 5 MBq 177Lu-DOTATATE for 4 h and/or BSO 10^−7 M from the day before irradiation until day 10, crystal violet day 10, % of non-treated, mean ± SEM, n = 12 from 3 independent experiments
[3] = tested on: total glutathione in EJM tumours; test: Total glutathione in EJM tumours; assay type: in vivo, mouse; settings: BSO 10 mM via drinking water (2 mmol/kg/day), summary in discussion
Procedure: (§3) Mice experiments were approved by the animal ethics committee of Université Libre de Bruxelles (Comité d’Ethique du Bien-Etre Animal (CEBEA)) and performed according to European guidelines. Female athymic nude Foxn1^nu mice (Charles River) (age = 5 to 6 weeks) were subcutaneously injected in the right flank with 1 × 10^6 EJM cells suspended in 100 µL of PBS and matrigel (1:1; Cultrex™ Basement Membrane Extract, Type 3, R&D Systems). The tumours were allowed to grow for 4 weeks before initiating treatments. At a tumour size of approximately 0.5 cm^3, mice were randomized into 4 treatment groups of 10 mice: control, ^177Lu-DOTATATE, BSO and ^177Lu-DOTATATE + BSO. […] All mice were monitored three times a week for body weight and tumour growth using a calliper. Tumour volume (mm^3) was calculated using the formula π/6 × length × width × height. The relative tumour volume was represented and calculated as (tumour volume on measured day)/(tumour volume measured at baseline). […] Another group of mice receiving ^177Lu-DOTATATE alone or in combination with BSO was sacrificed 24, 72 and 168 h post-injection (p.i.) for ex vivo biodistribution studies and early glutathione quantification (4 mice per group per time point) (Figure 1).

[4] = tested on: total glutathione in EJM cells; test: Total glutathione quantification, EJM; assay type: cell-based, human; settings: 10^−7 M BSO for 18 h, vs non-treated, mean ± SEM, n = 6 from 2 independent experiments
Procedure: as §2

kidneys = test: H&E staining of kidneys; settings: mouse, in vivo
Procedure: as §1

[5] = cited from earlier work
Procedure: The optimal combination treatment schedule would still have to be determined, which would be the one allowing the use of the minimal effective dose of BSO, i.e., the dose necessary to achieve sufficient tumour GSH depletion to have an efficient tumour radiosensitization, without excessive healthy tissue toxicity. The rapid clearance of BSO (estimated half-life in plasma of less than 2 h) and the rapid rate of GSH turnover would allow one to closely control GSH levels with BSO and allow for a GSH depletion only during tumour irradiation with ^177Lu-DOTATATE, limiting the potential ...

[6] = tested on: total glutathione in MIA-PACA-2 cells; test: Total glutathione quantification, MIA-PACA-2; assay type: cell-based, human; settings: 10^−7 M BSO for 18 h, vs non-treated, mean ± SEM, n = 6 from 2 independent experiments
Procedure: as §2

[7] = tested on: EJM multiple myeloma cell line; settings: 5 MBq 177Lu-DOTATATE for 4 h and/or BSO 10^−7 M from the day before irradiation until day 10, crystal violet day 10, % of non-treated, mean ± SEM, n = 12 from 3 independent experiments
[8] = tested on: EJM multiple myeloma xenograft; test: Tumour growth (calliper), EJM xenograft; assay type: in vivo, mouse; settings: 30 MBq 177Lu-DOTATATE IV day 28 and/or 10 mM BSO drinking water 3 weeks, exponential growth fit, [95% CI], 8 to 10 mice per group
Procedure: as §3

[9] = tested on: total glutathione in COLO-677 cells; test: Total glutathione quantification, COLO-677; assay type: cell-based, human; settings: 10^−7 M BSO for 18 h, vs non-treated, n = 6 from 2 independent experiments
Procedure: as §2

[10] = tested on: COLO-677 multiple myeloma cell line; settings: 5 MBq 177Lu-DOTATATE for 4 h and/or BSO 10^−7 M from the day before irradiation until day 10, crystal violet day 10, % of non-treated, mean ± SEM, n = 12 from 3 independent experiments
HBL melanoma cell line = settings: 5 MBq 177Lu-DOTATATE for 4 h and/or BSO 10^−7 M from the day before irradiation until day 10, crystal violet day 10, % of non-treated, mean ± SEM, n = 12 from 3 independent experiments
[11] = tested on: total glutathione in HT-29 cells; test: Total glutathione quantification, HT-29; assay type: cell-based, human; settings: 10^−7 M BSO for 18 h, vs non-treated, n = 6 from 2 independent experiments
Procedure: as §2

[12] = parameters: method as in PMID 27092812, PMID 8270977, PMID 8558205, PMID 9392620; settings: early-phase clinical studies on solid tumours; cited from earlier work
[13] = tested on: MIA-PACA-2 pancreatic adenocarcinoma cell line; settings: 5 MBq 177Lu-DOTATATE for 4 h and/or BSO 10^−7 M from the day before irradiation until day 10, crystal violet day 10, % of non-treated, mean ± SEM, n = 12 from 3 independent experiments
MM162 melanoma cell line = settings: 5 MBq 177Lu-DOTATATE for 4 h and/or BSO 10^−7 M from the day before irradiation until day 10, crystal violet day 10, % of non-treated, mean ± SEM, n = 12 from 3 independent experiments
[14] = tested on: total glutathione in HBL cells; test: Total glutathione quantification, HBL; assay type: cell-based, human; settings: 10^−7 M BSO for 18 h, vs non-treated, mean ± SEM, n = 6 from 2 independent experiments
Procedure: as §2

[15] = Water intake and tolerability in mice; settings: EJM xenograft nude mice; BSO 10 mM in drinking water; 30 MBq 177Lu-DOTATATE IV
Procedure: as §3

EJM xenograft mice = test: Ex vivo biodistribution and time-activity curves; assay type: in vivo, mouse; settings: 30 MBq 177Lu-DOTATATE IV ± 10 mM BSO via drinking water, single exponential fit of time-activity curve, n = 1 to 6 mice per group
Procedure: as §3

bone marrow [16] = test: Bone marrow apoptosis assessment (Annexin V/7-AAD); assay type: in vivo, mouse; settings: mice sacrificed 29 to 38 days post-177Lu-DOTATATE injection; Annexin V/7-AAD flow cytometry; mean ± SEM; 3 to 4 mice per group
Procedure: At the time of sacrifice, bone marrow (BM) was harvested from both femurs (containing hematopoietically active marrow) of the animals. Femurs were excised from each mouse, and then the attached muscle was trimmed from the periosteal surface and the bone was opened at the distal end. BM was isolated using the cytocentrifuge method. In brief, the femur was placed in a 0.5 mL Eppendorf tube pre-punctured with a needle at the base of the tube to form an opening. The 0.5 mL tube was nested within a 1.5 mL Eppendorf tube, and both were centrifuged at 10,000 rpm for 15 s to form a BM pellet at the bottom of the 1.5 mL Eppendorf tube yet to retain the femur within the 0.5 mL tube. • Bone marrow smears and cytological assessment. BM samples were assayed for apoptosis. A 10 min incubation step at 37 °C with NH4Cl was performed for red blood cell lysis. Samples were then centrifuged for 5 min, and the supernatant containing lysed red blood cells was discarded. Samples were then incubated with Annexin-V Binding Buffer (ThermoFisher, Waltham, MA, USA), Annexin V (BD Biosciences, Franklin Lakes, NJ, USA) and 7-AAD (BD Biosciences, Franklin Lakes, NJ, USA) for 15 min at room temperature. Annexin Buffer was added to samples that were subsequently analysed using a MACSQuant Analyzer 10 Flow Cytometer (Miltenyi Biotec, Bergisch Gladbach, Germany).

bone marrow [17] = test: Bone marrow smears and cytological assessment; assay type: in vivo, mouse; settings: 29 to 38 days p.i.
Procedure: At the time of sacrifice, bone marrow (BM) was harvested from both femurs (containing hematopoietically active marrow) of the animals. Femurs were excised from each mouse, and then the attached muscle was trimmed from the periosteal surface and the bone was opened at the distal end. BM was isolated using the cytocentrifuge method. In brief, the femur was placed in a 0.5 mL Eppendorf tube pre-punctured with a needle at the base of the tube to form an opening. The 0.5 mL tube was nested within a 1.5 mL Eppendorf tube, and both were centrifuged at 10,000 rpm for 15 s to form a BM pellet at the bottom of the 1.5 mL Eppendorf tube yet to retain the femur within the 0.5 mL tube. • Bone marrow smears and cytological assessment.
BM smears were prepared using the push-slide technique. In brief, one drop of BM was placed at one extremity of a glass slide and was then spread in an even film using a second glass slide (held at an angle) as a spreader. The spreader slide was slid forward the length of the slide to produce a smear. Slides were fixed in absolute methanol for 5 min and then air-dried. May-Grunwald–Giemsa staining was used for routine evaluation of BM cytomorphology. […] A qualitative and quantitative cytological evaluation of all the major lineages was performed by an experienced clinical pathologist on 300 to 500 cells. • Bone marrow apoptosis assessment.

- liver histology (H&E) (liver): No morphological changes were observed
- kidney histology (H&E) (kidneys): No morphological changes were observed
SMILES: CCCCS(=N)(=O)CC[C@H](N)C(=O)O (stereo partly drawn) [BSO, L-Buthionine-(S,R)-Sulfoximine]
- change in total glutathione levels [1]: −11.1 ± 3.7%
- cell survival [2]: did not affect cell lines survival
- tumour GSH depletion [3]: ~ 80%
- change in total glutathione levels [4]: −9.4 ± 2.2%
- estimated half-life in plasma [5]: less than 2 h
- change in total glutathione levels [6]: −20.7 ± 3.5%
- cell survival [7]: did not affect cell lines survival
- Tumour doubling time [8]: 7.5 days and 7.5 [6.3 – 9.1] days
- change in total glutathione levels [9]: not affected
- cell survival [10]: did not affect cell lines survival
- cell survival (HBL melanoma cell line): 81.2 ± 3.8%
- change in total glutathione levels [11]: not affected
- adverse events caused by BSO alone [12]: only grade 1–2 nausea and vomiting
- cell survival [13]: 87.6 ± 3.8%
- cell survival (MM162 melanoma cell line): did not affect cell lines survival
- change in total glutathione levels [14]: −21.5 ± 3.0%
- water intake [15]: 5.6 ± 0.6 mL/day/mouse

SMILES: C[C@@H](O)[C@H](NC(=O)[C@@H]1CSSC[C@H](NC(=O)[C@@H](Cc2ccccc2)NC(=O)CN2CCN(CC(=O)O)CCN(CC(=O)O)CCN(CC(=O)O)CC2)C(=O)N[C@@H](Cc2ccc(O)cc2)C(=O)N[C@H](Cc2c[nH]c3ccccc23)C(=O)N[C@@H](CCCCN)C(=O)N[C@@H]([C@@H](C)O)C(=O)N1)C(=O)O [^177Lu-DOTATATE, metal not drawn]
- liver histology (H&E) (liver): No morphological changes were observed
- effective half-life in the kidneys (EJM xenograft mice): 13.7 h
- effective half-life in the liver (EJM xenograft mice): 24 h
- BM apoptotic cells (bone marrow [16]): 33.0 ± 2.8%
- kidney histology (H&E) (kidneys): No morphological changes were observed
- relative proportion of BM lineages (erythroid, granulocytic, lymphoid), between treatment groups (bone marrow [17]; BM smears, May-Grunwald–Giemsa, 3 to 4 mice per group): no significant differences
- qualitative assessment of BM smears (morphology) (bone marrow [17]; major BM lineages including megakaryocytes): did not show any morphological abnormalities
- water intake [15]: 5.2 ± 0.5 mL/day/mouse
